Measurements published in patent US6995143B2, “Macrolides with antibacterial activity” (Basilea Pharmaceutica AG, priority 2002, dated 2006).
Converted amounts (≈) assume the structure as drawn.

Tests used:
Assay type in all cases: cell-based
[1] = system: Escherichia coli ATCC 25922; assay: MIC, standard microdilution technique
Outline: (§1)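 Antibacterial activity was determined by broth microdilution following the NCCLS approved standard M7-A5 (5th edition, 2000) for dilution susceptibility testing of aerobically growing bacteria.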

[2] = system: Staphylococcus aureus 1086; assay: MIC, standard microdilution technique
Outline: as §1

[3] = system: Staphylococcus aureus 745; assay: MIC, standard microdilution technique
Outline: as §1

[4] = system: Staphylococcus aureus ATCC 29213; assay: MIC, standard microdilution technique
Outline: as §1

[5] = system: Streptococcus pneumoniae 12288; assay: MIC, standard microdilution technique
Outline: as §1

[6] = system: Streptococcus pneumoniae SL199T; assay: MIC, standard microdilution technique
Outline: as §1

[7] = system: Streptococcus pneumoniae l/l; assay: MIC, standard microdilution technique
Outline: as §1

[8] = system: Streptococcus pneumoniae ¼; assay: MIC, standard microdilution technique
Outline: as §1

[9] = system: Haemophilus influenzae 12214; assay: MIC, standard agar dilution method using HTM medium
Outline: (§2)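 MICs were read following the NCCLS approved standard (M7-A5) for dilution susceptibility testing of aerobically growing bacteria. Compounds were tested against Haemophilus influenzae.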

[10] = system: Haemophilus influenzae B1501; assay: as above
Outline: as §2

[11] = system: Haemophilus influenzae QK12/87; assay: as above
Outline: as §2

[12] = system: Haemophilus influenzae QK50; assay: as above
Outline: as §2

Compound | minimum inhibitory concentration (MIC), Strain D [1] [µg/mL] | minimum inhibitory concentration (MIC), Strain B [2] | minimum inhibitory concentration (MIC), Strain C [3] [µg/mL] | minimum inhibitory concentration (MIC), Strain A [4] | minimum inhibitory concentration (MIC), Strain H [5] [µg/mL] | minimum inhibitory concentration (MIC), Strain G [6] | minimum inhibitory concentration (MIC), Strain E [7] | minimum inhibitory concentration (MIC), Strain F [8] | minimum inhibitory concentration (MIC), Strain K [9] [µg/mL] | minimum inhibitory concentration (MIC), Strain M [10] [µg/mL] | minimum inhibitory concentration (MIC), Strain I [11] [µg/mL] | minimum inhibitory concentration (MIC), Strain L [12] [µg/mL]
CC[C@H]1OC(=O)[C@H](C)C(=O)[C@H](C)[C@@H](O[C@@H]2O[C@H](C)C[C@H](N(C)C)[C@H]2O)[C@](C)(OC)C[C@@H](C)C(=O)[C@H](C)[C@H]2[C@@H](SCC(=O)c3csc4ccccc34)C(=O)O[C@@]21C [Example 54] | >32 | 0.5 µg/mL (≈ 0.611 µM) | >32 | 1 µg/mL (≈ 1.22 µM) | >32 | >32 µg/mL | <=0.06 μg/ml | 32 µg/mL (≈ 39.1 µM) | 16 (≈ 19.6 µM) | 8 (≈ 9.78 µM) | 16 (≈ 19.6 µM) | 32 (≈ 39.1 µM)
CC[C@H]1OC(=O)[C@H](C)C(=O)[C@H](C)[C@@H](O[C@@H]2O[C@H](C)C[C@H](N(C)C)[C@H]2O)[C@](C)(OC)C[C@@H](C)C(=O)[C@H](C)[C@H]2[C@@H](SCC(=O)Nc3ccc(C)c(C)c3)C(=O)O[C@@]21C [Example 55] | >32 | 0.125 µg/mL (≈ 0.155 µM) | >32 | 0.25 µg/mL (≈ 0.311 µM) | 2 (≈ 2.48 µM) | 0.25 µg/mL (≈ 0.311 µM) | <=0.06 μg/ml | <=0.06 μg/ml | 8 (≈ 9.94 µM) | 8 (≈ 9.94 µM) | 8 (≈ 9.94 µM) | 16 (≈ 19.9 µM)
CC[C@H]1OC(=O)[C@@](C)(F)C(=O)[C@H](C)[C@@H](O[C@@H]2O[C@H](C)C[C@H](N(C)C)[C@H]2O)[C@](C)(OC)C[C@@H](C)C(=O)[C@H](C)[C@H]2[C@@H](S(=O)(=O)CCCn3cnc4c(N)ncnc43)C(=O)O[C@@]21C [Example 58] | >32 | 0.5 µg/mL (≈ 0.575 µM) | >32 | 0.5 µg/mL (≈ 0.575 µM) | 8 (≈ 9.21 µM) | 0.5 µg/mL (≈ 0.575 µM) | <=0.06 μg/ml | <=0.06 μg/ml | 4 (≈ 4.6 µM) | 4 (≈ 4.6 µM) | 4 (≈ 4.6 µM) | 4 (≈ 4.6 µM)
(3R or S, 3aR, 4R or S, 6R, 8R, 9R, 10R, 12S, 15R, 15aS) -3-[[3-[6-Amino-9H-purine-9-yl]propyl]thio]-15-ethyl-12-fluorooctahydro-8-methoxy-4,6,8,10,12,15a-hexamethyl-3-9-[[3,4,6-trideoxy-3-(dimethylamino)-β-D-xylo-hexopyranosyl]oxy]-2H-furo [2,3-c] oxacyclotetradecin-2,5,11,13 (3H,6H,12H)-tetrone [Example 13] | 32 | <=0.06 μg/ml | >32 | <=0.06 μg/ml | 0.25 | <=0.06 μg/ml | <=0.06 μg/ml | <=0.06 μg/ml | 2 | 2 | 2 | 2
(3R or S, 3aS, 4R or S, 6R, 8R, 9R, 10R, 12R, 15R, 15aS) -15-Ethylhexadecahydro-4,6,8,10,12,15a-hexamethyl-2,5,11,13-tetraoxo-8-[[(2E)-3-(3-quinolyl)-2-propen-1-yl]oxy]-9-[[3,4,6-trideoxy-3-(dimethylamino)-β-D-xylo-hexopyranosyl]oxy]-2H-furo [2,3-c] oxacyclotetradecin-3-carbonitrile [Example 15] | >32 | <=0.06 μg/ml | 32 | <=0.06 μg/ml | 16 | 2 µg/mL | <=0.06 μg/ml | 0.25 µg/mL | 4 | 2 | 4 | 2
